Reference: patent US10174020B2, “Pyridone or pyrimidone derivative, preparation method therefor and application thereof” (Sichuan Haisco Pharmaceutical Co., Ltd., priority 2014, dated 2019)

How the values were obtained:
[1] = target: human blood-coagulation factor XIa (Homo sapiens (Human), UniProt P03951); experiment: In vitro inhibitory effect on the enzymatic activity of blood-coagulation factor XIa (S2366 substrate, absorbance at 405 nm); assay type: biochemical; conditions: calculated from IC50 at substrate S2366 200 μM, Km=0.2 mM; IC50=Ki(1+[S]/Km)
Method: The following method was used to test the in vitro inhibitory effect of the compounds of the present invention on the activity of human blood-coagulation factor XIa, expressed by the Inhibition constant Ki.
Solution preparation: reaction buffer: 0.03M HEPES acid, 0.145M NaCl, 0.005 M KCl, 0.1% PEG-8000, pH=7.5;
HEPES 8.499 g, NaCl 8.47 g, KCl 0.3725, PEG 8000 1 g, plus ddH2O 800 ml; the pH was adjusted to […] with HCl, and the volume was metered to 1 L.
S2366 substrate stock solution (2 mM): a volume of substrate […] was dissolved in 23 ml sterile deionized water, aliquoted, and stored at 4° C. in darkness.
S2366 substrate working solution: the stock solution was diluted by 4 folds with the reaction buffer before use.
FXIa working solution: 1 μl FXIa stock solution was added to 10 ml reaction buffer and thoroughly mixed before use.
Method: 15 μl test sample working solution (15 μl DMSO for the control group) and 75 μl FXIa working solution were added to a 96-well plate, and incubated at room temperature for 15 min. Then 60 μl S2366 substrate working solution was added to initiate the reaction. The absorbance at 405 nm for the test compounds was continually assayed once every 3 minutes, and a ΔA-time curve was plotted to calculate the slope as the reaction rate. In accordance with the following equation, IC50 of each test sample when the substrate concentration was 200 μM was calculated with spss 16.0. Inhibition (I %) and Ki of the test samples were calculated in accordance with the follow equations, and the results are shown in Table 1. I %=(V0−Vi)/V0×100 where V0 is the reaction rate in the control wells, and Vi is the reaction rate in the test sample wells; IC50=Ki(1+[S]/Km) where Km=0.2 mM, and [S] is the substrate concentration=200 μM.

human plasma = experiment: In vitro assay of the blood coagulation function of human plasma (APTT); assay type: biochemical; conditions: concentration required to double the plasma APTT, read-out: aPTT EC2×
Method: 20 ml blood was taken by venipuncture from the ulnar vein of each of 20 healthy volunteers aged 25 to 35 years who had not taken any medicines within last one week, and was collected in a sodium citrate anticoagulation tube, with the ratio of anticoagulant to blood being 1:9 (v/v). Anticoagulation blood was taken and centrifuged at 200 g for 15 min, the supernatant therefrom was taken and centrifuged at 2000 g for 15 min, and then the supernatant therefrom was collected, well mixed, separated into 4 to 5 ml aliquots, and stored at −80° C. For APTT and PT assays, a plasma sample was taken and rapidly thawed in a 37° C. water bath, and 6 μl test compound working solution was added per 294 μl plasma, while 6 μl DMSO was added for the blank control. The compounds and plasma were well mixed, and assayed in a coagulometer. The concentration of the compounds (EC2×) required to double the plasma APTT was determined with origin 8.5, and the results are shown in Table 2.

human blood-coagulation factor XIa, sequence (P03951 388-625): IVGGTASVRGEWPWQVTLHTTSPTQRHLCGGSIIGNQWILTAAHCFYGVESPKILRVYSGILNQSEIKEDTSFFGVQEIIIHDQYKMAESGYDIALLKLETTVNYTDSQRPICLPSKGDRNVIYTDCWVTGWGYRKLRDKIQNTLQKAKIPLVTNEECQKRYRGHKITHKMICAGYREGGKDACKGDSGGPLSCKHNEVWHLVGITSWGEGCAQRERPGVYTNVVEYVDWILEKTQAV
human blood-coagulation factor XIa, sequence (P03951 19-387 partner): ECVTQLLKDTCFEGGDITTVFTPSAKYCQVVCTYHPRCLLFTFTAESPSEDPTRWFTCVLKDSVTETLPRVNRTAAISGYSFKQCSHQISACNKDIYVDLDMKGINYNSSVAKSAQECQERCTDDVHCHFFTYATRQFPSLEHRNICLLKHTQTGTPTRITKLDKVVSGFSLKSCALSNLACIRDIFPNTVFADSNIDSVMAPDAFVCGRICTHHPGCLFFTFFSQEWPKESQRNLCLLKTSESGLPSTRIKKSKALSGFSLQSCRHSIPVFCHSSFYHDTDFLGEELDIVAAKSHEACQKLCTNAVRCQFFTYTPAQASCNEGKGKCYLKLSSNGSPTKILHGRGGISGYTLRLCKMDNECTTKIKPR

Structure (SMILES) | Ki [1] | EC50 (human plasma)
O=C(O)c1ccc(NC(=O)C2CCc3cc(-c4cc(Cl)ccc4-n4cnnn4)cc(=O)n32)cc1 (stereo not shown) [Compound 2, N-(4-carboxyphenyl)-7-(5-chloro-2-(1H-tetrazol-1-yl)phenyl)-5-oxo-1,2,3,5-tetrahydroindolizine-3-carboxamide] | 68 nM | 
O=C(O)c1cc2cc(NC(=O)[C@@H]3CCc4cc(-c5cc(Cl)ccc5-n5cnnn5)cc(=O)n43)ccc2[nH]1 (single isomer, unassigned) [Compound 8-1] | 2 nM | 2300 nM
O=C(O)c1cc2cc(NC(=O)C(Cc3ccccc3)n3ccc(-c4cc(Cl)ccc4-n4cnnn4)cc3=O)ccc2[nH]1 (stereo not shown) [Compound 9, 5-[[2-[4-[5-chloro-2-(tetrazol-1-yl)phenyl]-2-oxo-1-pyridyl]-3-phenyl-propanoyl]amino]-1H-indole-2-carboxylic Acid] | 4 nM | 6400 nM
O=C(O)c1cc2cc(NC(=O)C3CCc4nc(-c5cc(Cl)ccc5-n5cnnn5)cc(=O)n43)ccc2[nH]1 (stereo not shown) [Compound 4, N-(2-carboxyindol-5-yl)-2-(5-chloro-2-(1H-tetrazol-1-yl)phenyl)-4-oxo-4,6,7,8-tetrahydropyrrolo[1,2-a]pyrimidine-6-carboxamide] | 17 nM | 9500 nM
O=C(Cn1ccc(-c2cc(Cl)ccc2-n2cnnn2)cc1=O)Nc1ccc(C(=O)O)cc1 [Compound 5] | 146 nM | 
O=C(O)c1cc2cc(NC(=O)[C@H]3CCc4cc(-c5cc(Cl)ccc5-n5cnnn5)cc(=O)n43)ccc2[nH]1 (single isomer, unassigned) [Compound 8-2] | 1030 nM | 
O=C(O)c1cc2cc(NC(=O)C3CCc4cc(-c5cc(Cl)ccc5-n5cnnn5)cc(=O)n43)ccc2[nH]1 (stereo not shown) [Compound 3, N-(2-carboxyindol-5-yl)-7-(5-chloro-2-(1H-tetrazol-1-yl)phenyl)-5-oxo-1,2,3,5-tetrahydroindolizine-3-carboxamide] | 9 nM | 6100 nM
O=C(Cn1ccc(-c2cc(Cl)ccc2-n2cnnn2)cc1=O)Nc1ccc2[nH]c(C(=O)O)cc2c1 [Compound 6] | 14 nM | 
O=C(O)c1ccc(NC(=O)C2CCc3nc(-c4cc(Cl)ccc4-n4cnnn4)cc(=O)n32)cc1 (stereo not shown) [Compound 1, N-(4-carboxyphenyl)-2-(5-chloro-2-(1H-tetrazol-1-yl)phenyl)-4-oxo-4,6,7,8-tetrahydropyrrolo[1,2-a]pyrimidine-6-carboxamide] | 249 nM | 
